From PMC9822194, “Chemoselective Synthesis of Mannich Adducts from 1,4-Naphthoquinones and Profile as Autophagic Inducers in Oral Squamous Cell Carcinoma” (Molecules, 2022)
Like-named read-outs stand apart in the source and are kept apart here.

Columns and labels:
[1] = test system: normal human gingival fibroblasts; assay: MTT cell viability assay, normal fibroblasts; format: cell-based; conditions: 48 h
Method: (§1) Cells and reagents. Human SCC-4, SCC-9 and SCC-25 cells, derived from a human oral tongue SCC were obtained from the ATCC (CRL-1624; CRL-1629 and CRL-1628, respectively) and maintained at 1:1 DMEM/F12 (Dulbecco’s modified Eagle medium and Ham’s F12 medium; Gibco, Thermo Fisher, Waltham, MA, USA) supplemented with 10% (v/v) FBS (fetal bovine serum; Invitrogen, Thermo Fisher, Waltham, MA, USA) and 400 ng/mL hydrocortisone (Sigma-Aldrich Co., St. Louis, MO, USA). Primary normal human gingival fibroblasts were obtained from the ATCC (PCS-201-018), maintained in DMEM supplemented with 10% (v/v) FBS, and used in a maximum of 6 passages. Cells were grown in a humidified environment containing 5% CO2 at 37 °C. […] Carboplatin in water (Fauldcarbo®; Libbs Farmacêutica, São Paulo, SP, Brazil) was used as a standard anticancer compound.
(§2) Cell viability assay (cytotoxicity) and stability assay. To assess cell viability, cells were grown in triplicate in 96-well plates (5 × 10^3 cells/well) until confluence when treated with the different compounds as in Machado et al.. Briefly, DMSO in the same concentrations was used as a 100% cell viability control. After 48 h, cells were incubated with 5 mg/mL MTT reagent (3-(4,5-dimethyl-2-thiazolyl)-2,5-diphenyl-2H-tetrazolium bromide) (Sigma-Aldrich Co., St. Louis, MO, USA) for 3.5 h. Formazan crystals were dissolved in MTT solvent (DMSO/methanol 1:1 v/v) and the absorbance at 560 nm was evaluated using an EPOCH microplate spectrophotometer (BioTek Instruments, Winooski, VT, USA) with background absorbance at 670 nm subtracted. Each of the eighteen compounds was tested at six or seven different concentrations, ranging from 0.3 µM to 200 µM in cancer cell lines (SCC-4, SCC-9 and SCC-25) and 0.4 µM to 300 µM in normal primary human gingival fibroblast.
(§3) Statistical analysis, IC50 calculation. IC50 values for MTT assays were obtained by non-linear regression using the GraphPad Prism 5.0 software (GraphPad, San Diego, CA, USA) from at least three independent experiments. Data are presented as means ± SD. A dose-response (inhibitor) vs response curve using the least squares method was used to determine the IC50, SD and R2 of the data. The selectivity index was calculated as S.I. = IC50 of the compound in normal oral fibroblast cells/IC50 of the same compound for each oral cancer cell line (SCC-4, SCC-9 and SCC-25) and the mean was calculated when indicated.

[2] = test system: SCC-9 (OSCC cells); assay: MTT cell viability assay (cytotoxicity), SCC9; format: cell-based, Human; conditions: for Selective Index (S.I.): IC50 normal oral fibroblasts/IC50 SCC-9
Method: as §1, §2, §3

[3] = test system: SCC-4 cells; assay: MTT cell viability assay, SCC4; format: cell-based, Human; conditions: read-out: SCC4 IC50
Method: as §1, §2, §3

[4] = test system: primary human fibroblasts; assay: Clonogenic assay, primary human fibroblasts; format: cell-based; conditions: 2 × IC50, 5 days, normal fibroblasts
Method: (§4) Clonogenic assay. The SCC9 strain and primary human fibroblasts were grown in duplicates in 24-well plates (5 × 10^4 cells/well) and incubated for 24 h. […] DMSO was used at the same concentrations as a control for 100% of viability. After 5 days of incubation, the culture medium was removed and the cells were fixed with absolute ethanol (500 µL) for 10 min, then stained with crystal 0.05% violet (Sigma Aldrich) in 20% ethanol (500 µL) for 10 min and washed with distilled water. The plates were scanned to quantify the inhibition of the formation of colonies. Then, crystal violet was solubilized in 33% acetic acid and added to the 96-well plate. Finally, the absorbance was read in a spectrophotometer (EPOCH, BioTek Instruments, Winooski, VT, USA) (595 nm).

[5] = test system: OSCC cell lines (SCC 4, SCC-9 and SCC-25); assay: MTT assay, mean over three OSCC cell lines and average selectivity index; format: cell-based, Human; conditions: for Average S.I.: average selectivity index over SCC-4, SCC-9, SCC-25 vs normal fibroblasts; for IC50: mean of SCC9, SCC25, SCC4, read-out: Oral Tumor Cells Mean IC50
Method: as §2, §3

[6] = test system: SCC9 cells; assay: Stability test (pre-incubation at 37 °C, then MTT on SCC9); format: cell-based, Human; conditions: 2 × IC50 pre-incubated 0-48 h at 37 °C, then SCC9 48 h
Method: After the desired treatment time was reached, the medium containing the compound was replaced with untreated culture medium and the MTT assay was performed at the end of both experiments.

[7] = test system: SCC-25 cells; assay: MTT cell viability assay, SCC25; format: cell-based, Human; conditions: read-out: SCC25 IC50
Method: as §1, §2, §3

[8] = test system: SCC9 cells; assay: Clonogenic assay, SCC9; format: cell-based, Human; conditions: 2 × IC50, 5 days
Method: as §4

[9] = Homo sapiens, Fibroblast, MTT, Table 1, read-out: Primary Gengival Fibroblast IC50
[10] = Homo sapiens, SCC-9, MTT, 48 h, Table 1, read-out: SCC9—Oral Cancer IC50
[11] = MTT, Table 1, read-out: Primary Gengival Fibroblast IC50
[12] = MTT, 48 h, Table 1, read-out: SCC9—Oral Cancer IC50

COC(=O)OC1=C(C(c2ccccc2)N(Cc2ccccc2)C(=O)OC)C(=O)c2ccccc2C1=O (stereo not shown) [5b, Methylbenzyl((3-((methoxycarbonyl)oxy)-1,4-dioxo-1,4-dihydronaphthalen-2yl)(phenyl)methyl)carbamate]
IC50 [1, 9]: 55.7 µM | IC50 [2, 10]: 28.5 µM | Selective Index (S.I.) [2]: 1.95

COC(=O)OC1=C(C(c2ccc([N+](=O)[O-])cc2)N(Cc2ccccc2)C(=O)OC)C(=O)c2ccccc2C1=O (stereo not shown) [5c, Methylbenzyl((3-((methoxycarbonyl)oxy)-1,4-dioxo-1,4-dihydronaphthalen-2-yl)(4-nitrophenyl)methyl)carbamate]
IC50 [1, 9]: 38.3 µM | IC50 [2, 10]: 24.8 µM | Selective Index (S.I.) [2]: 1.54

COC(=O)OC1=C(C(c2ccc(Br)cc2)N(Cc2ccccc2)C(=O)OC)C(=O)c2ccccc2C1=O (stereo not shown) [5d, Methylbenzyl((4-bromophenyl)(3-((methoxycarbonyl)oxy)-1,4-dioxo-1,4-dihydronaphthalen-2-yl)methyl)carbamate]
IC50 [1, 9]: 69.1 µM | IC50 [2, 10]: 38.8 µM | Selective Index (S.I.) [2]: 1.78

COC(=O)OC1=C(C(c2ccc(F)cc2)N(Cc2ccccc2)C(=O)OC)C(=O)c2ccccc2C1=O (stereo not shown) [5e, Methylbenzyl((4-fluorophenyl)(3-((methoxycarbonyl)oxy)-1,4-dioxo-1,4-dihydronaphthalen-2-yl)methyl)carbamate]
IC50 [1, 9]: 40.1 µM | IC50 [2, 10]: 22.1 µM | Selective Index (S.I.) [2]: 1.81

COC(=O)OC1=C(C(c2ccc(C)cc2)N(Cc2ccccc2)C(=O)OC)C(=O)c2ccccc2C1=O (stereo not shown) [5f, Methylbenzyl((3-((methoxycarbonyl)oxy)-1,4-dioxo-1,4-dihydronaphthalen-2-yl)(p-tolyl)methyl)carbamate]
IC50 [1, 9]: 45.7 µM | IC50 [2, 10]: 22.2 µM | Selective Index (S.I.) [2]: 2.05

COC(=O)OC1=C(C(c2ccc(OC)cc2)N(Cc2ccccc2)C(=O)OC)C(=O)c2ccccc2C1=O (stereo not shown) [5g, Methylbenzyl((3-((methoxycarbonyl)oxy)-1,4-dioxo-1,4-dihydronaphthalen-2-yl)(4-methoxyphenyl)methyl)carbamate]
IC50 [1, 9]: 35.5 µM | IC50 [2, 10]: 21 µM | Selective Index (S.I.) [2]: 1.68

COC(=O)OC1=C(C(c2cccc(Cl)c2)N(Cc2ccccc2)C(=O)OC)C(=O)c2ccccc2C1=O (stereo not shown) [5i, Methylbenzyl((3-chlorophenyl)(3-((methoxycarbonyl)oxy)-1,4-dioxo-1,4-dihydronaphthalen-2-yl)methyl)carbamate]
IC50 [1, 9]: 42.6 µM | IC50 [2, 10]: 23.9 µM | Selective Index (S.I.) [2]: 1.77

COC(=O)N(Cc1ccccc1)C(C1=C(O)C(=O)c2ccccc2C1=O)c1ccc(F)cc1 (stereo not shown) [6e]
IC50 [1, 9]: 197 µM | IC50 [2, 10]: 73.2 µM | Selective Index (S.I.) [2]: 2.68

N.N.O=C([O-])C1(C(=O)[O-])CCC1.[Pt+2] [Carboplatin]
IC50 [1, 11]: 193 µM | Selective Index (S.I.) [2]: 0.85 | IC50 [2, 12]: 223 µM | IC50 ([3]; MTT, 48 h): 195 µM | Cells viable and able to form colonies [4]: less than 50% | Average S.I. [5]: 0.85 | Average S.I. ([5]; listed as carboplatin): 0.847 | IC50 [5]: 228 µM | Stability at 37 °C (retained cytotoxicity) [6]: stable even after 48 h | IC50 ([7]; MTT, 48 h): 264 µM | Cytotoxicity in clonogenic assay (colony formation) [8]: high cytotoxicity

COc1cccc2c1C(=O)c1c(O)c3c(c(O)c1C2=O)C[C@@](O)(C(=O)CO)C[C@@H]3O[C@H]1C[C@H](N)[C@H](O)[C@H](C)O1 [Doxorubicin]
IC50 [1, 9]: 18.7 µM | IC50 [2, 10]: 7.2 µM | Selective Index (S.I.) [2]: 2.57 | IC50 ([3]; Homo sapiens, SCC-4, MTT, 48 h): 5.87 µM | IC50 ([5]; Homo sapiens): 4.73 µM | Average S.I. [5]: 3.94 | Stability at 37 °C (retained cytotoxicity) [6]: stable even after 48 h | IC50 ([7]; Homo sapiens, SCC-25, MTT, 48 h): 1.12 µM

CC(C)=CCC1=C(O)C(=O)c2ccccc2C1=O [Lapachol, reference compound]
IC50 ([1]; Homo sapiens, Fibroblast, read-out: Primary Gengival Fibroblast IC50): 102 µM | IC50 ([2]; Homo sapiens, SCC-9, 48 h, read-out: SCC9 IC50): 42.1 µM | IC50 ([2]; Homo sapiens, SCC-9, 48 h, read-out: SCC9—Oral Cancer IC50): 42.1 µM | Selective Index (S.I.) [2]: 2.41 | IC50 ([3]; Homo sapiens, SCC-4, 48 h): 55.3 µM | IC50 ([5]; Homo sapiens): 61.1 µM | Average S.I. [5]: 1.66 | IC50 ([7]; Homo sapiens, SCC-25, 48 h): 85.9 µM

Methyl benzyl((3-chloro-phenyl)(3-((methoxycarbonyl)oxy)-1,4-dioxo-1,4-dihydronaphthalen-2-yl)methyl)carbamate [6i]
IC50 [1, 11]: 73.5 µM | Selective Index (S.I.) [2]: 1.03 | IC50 [2, 12]: 70.7 µM

Methyl benzyl((3-methyl-phenyl)(3-((methoxycarbonyl)oxy)-1,4-dioxo-1,4-dihydronaphthalen-2-yl)methyl)carbamate [6h]
IC50 [1, 11]: 53.7 µM | IC50 ([1]; MTT, Table 2, read-out: Primary Gingival Fibroblast IC50): 53.7 µM | Selective Index (S.I.) [2]: 4.83 | IC50 [2, 12]: 11.1 µM | IC50 ([3]; MTT, 48 h): 98.4 µM | Average S.I. [5]: 1.29 | IC50 ([7]; MTT, 48 h): 56.6 µM

Methyl benzyl((4-chlorophenyl)(3-((methoxycarbonyl)oxy)-1,4-dioxo-1,4-dihydronaphthalen-2-yl)methyl)carbamate [5a]
IC50 [1, 11]: 37.5 µM | Selective Index (S.I.) [2]: 1.61 | IC50 [2, 12]: 23.2 µM

Methyl benzyl((4-nitrophenyl)(3-((methoxycarbonyl)oxy)-1,4-dioxo-1,4-dihydronaphthalen-2-yl)methyl)carbamate [6c]
IC50 [1, 11]: 148 µM | Selective Index (S.I.) [2]: 2.63 | IC50 [2, 12]: 56.1 µM

Methyl benzyl((phenyl)(3-((methoxycarbonyl)oxy)-1,4-dioxo-1,4-dihydronaphthalen-2-yl)methyl)carbamate [6b]
IC50 [1, 11]: 230 µM | Selective Index (S.I.) [2]: 2.79 | IC50 [2, 12]: 82.2 µM

Methylbenzyl((3-((methoxycarbonyl)oxy)-1,4-dioxo-1,4-dihydronaphthalen-2-yl)(m-tolyl) methyl)carbamate [5h]
IC50 [1, 11]: 49.1 µM | Selective Index (S.I.) [2]: 1.97 | IC50 [2, 12]: 24.9 µM
